Source: BindingDB's records for doi:10.1016/S1074-5521(02)00310-1 (Tohoku University, 2003)

Target: T1, Peptidyl-prolyl cis-trans isomerase ESS1 (Saccharomyces cerevisiae (strain ATCC 204508 / S288c), UniProt P22696)
T1 sequence (P22696 whole entry): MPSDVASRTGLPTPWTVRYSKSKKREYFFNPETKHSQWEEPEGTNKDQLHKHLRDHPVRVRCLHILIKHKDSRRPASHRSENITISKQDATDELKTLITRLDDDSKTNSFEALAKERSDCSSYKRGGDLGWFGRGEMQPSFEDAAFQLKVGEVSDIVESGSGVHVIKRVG
Assay: Pin1 Inhibition Assay
Conditions: pH 7; 0 °C
Experimental: Assay was carried out measuring the MCA fluorescence using Suc-Ala-Glu-Pro-Phe-MCA as substrate purchased from Japan Peptide Institute Co.

| Compound | IC50 |
| --- | --- |
| COc1ccc(C2/C=C\CN(C(=O)c3ccccc3)CC(=O)N2Cc2ccc(F)cc2)cc1 (stereo not drawn) | > 10 µM |
| COc1ccc(C2CC(O)(c3ccccc3)Oc3c(C)ccc(C)c32)cc1 (stereo not drawn) [4-(4-methoxyphenyl)-5,8-dimethyl-2-phenyl-chroman-2-ol] | 5 µM |
| O=C(O)CN1C(=O)c2cccc3cccc(c23)C1=O [(1,3-dioxo-1H-benzo[de]isoquinolin-2(3H)-yl)acetic acid] | > 10 µM |
| CC(C)C[C@H](NC(=O)c1[nH]cnc1C(=O)N1CCc2ccccc2C1)C(=O)OCc1ccccc1 [(2S)-2-[[[5-[3,4-dihydro-1H-isoquinolin-2-yl(oxo)methyl]-1H-imidazol-4-yl]-oxomethyl]amino]-4-methylpentanoic acid (phenylmethyl) ester] | > 1.5 µM |
| COc1ccc(Br)cc1[C@H]1[C@@H]2C=CCC[C@@]2(C)C(=O)N1Cc1ccccc1 [(3R,3aR,7aR)-2-benzyl-3-(5-bromo-2-methoxy-phenyl)-7a-methyl-3,3a,6,7-tetrahydroisoindol-1-one] | 5 µM |
| C[C@@]12CCC=C[C@H]1[C@H](c1ccc3ccccc3c1Br)N(Cc1ccccc1)C2=O [(3R,3aR,7aR)-3-(1-bromanylnaphthalen-2-yl)-7a-methyl-2-(phenylmethyl)-3,3a,6,7-tetrahydroisoindol-1-one] | 1.5 µM |
| Cc1ccc(-c2cc([C@H]3[C@@H]4C=CCC[C@@]4(C)C(=O)N3Cc3ccccc3)ccc2F)cc1 [(3R,3aR,7aR)-3-[4-fluoro-3-(4-methylphenyl)phenyl]-7a-methyl-2-(phenylmethyl)-3,3a,6,7-tetrahydroisoindol-1-one] | 5 µM |
| CC[C@@H]1CC=C[C@H]2[C@H]1C(=O)N(Cc1ccccc1)[C@H]2c1ccc(OC)c(Cl)c1 [(3R,3aS,7R,7aS)-3-(3-chloranyl-4-methoxy-phenyl)-7-ethyl-2-(phenylmethyl)-3a,6,7,7a-tetrahydro-3H-isoindol-1-one] | 2 µM |
| CC(C)C[C@H](NC(=O)c1[nH]cnc1C(=O)N[C@@H](C)C(=O)OC(C)(C)C)C(=O)OCc1ccccc1 [(phenylmethyl) (2S)-4-methyl-2-[[4-[[(2S)-1-[(2-methylpropan-2-yl)oxy]-1-oxidanylidene-propan-2-yl]carbamoyl]-1H-imidazol-5-yl]carbonylamino]pentanoate] | > 10 µM |
| Cc1cccc(NC(=O)c2[nH]cnc2C(=O)N[C@@H](CCCCNC(=O)OC(C)(C)C)C(=O)OC(C)(C)C)c1 [ILP-IV-14] | > 10 µM |
| COc1ccccc1-c1cc(=O)c2c(O)ccc([N+](=O)[O-])c2o1 [MLS000518626] | > 10 µM |
| CCOC(=O)c1ccc(NC(=O)c2[nH]cnc2C(=O)N[C@@H](CCCCNC(=O)OC(C)(C)C)C(=O)OC(C)(C)C)cc1 [MLS000849609] | 2.5 µM |
| CCOC(=O)c1ccc(NC(=O)c2[nH]cnc2C(=O)N[C@@H](Cc2ccccc2)C(=O)OC(C)(C)C)cc1 [ethyl 4-[[5-[[(2S)-1-[(2-methylpropan-2-yl)oxy]-1-oxidanylidene-3-phenyl-propan-2-yl]carbamoyl]-1H-imidazol-4-yl]carbonylamino]benzoate] | > 10 µM |
